# Laboratory results from PubChem BioAssay (NCI).
#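 Test compounds were applied to cells in 96-well plates for 48 hours at 5 doses. GI50 marks 50% less growth. TGI: total growth inhibition.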
# Key:
# Test in all cases: inhibition of tumour cell growth, NCI panel, 48 h
# 786-0 renal = tested on: 786-0 renal
# A549 NSCLC = tested on: A549 NSCLC
# ACHN renal = tested on: ACHN renal
# BT-549 breast = tested on: BT-549 breast
# CAKI-1 renal = tested on: CAKI-1 renal
# CCRF-CEM leukemia = tested on: CCRF-CEM leukemia
# COLO 205 colon = tested on: COLO 205 colon
# DU-145 prostate = tested on: DU-145 prostate
# EKVX NSCLC = tested on: EKVX NSCLC
# HCC-2998 colon = tested on: HCC-2998 colon
# HCT-116 colon = tested on: HCT-116 colon
# HCT-15 colon = tested on: HCT-15 colon
# HL-60(TB) leukemia = tested on: HL-60(TB) leukemia
# HOP-62 NSCLC = tested on: HOP-62 NSCLC
# HOP-92 NSCLC = tested on: HOP-92 NSCLC
# HS 578T breast = tested on: HS 578T breast
# HT29 colon = tested on: HT29 colon
# IGROV1 ovarian = tested on: IGROV1 ovarian
# K-562 leukemia = tested on: K-562 leukemia
# KM12 colon = tested on: KM12 colon
# LOX IMVI melanoma = tested on: LOX IMVI melanoma
# M14 melanoma = tested on: M14 melanoma
# MALME-3M melanoma = tested on: MALME-3M melanoma
# MCF7 breast = tested on: MCF7 breast
# MDA-MB-231 breast = tested on: MDA-MB-231 breast
# MDA-MB-435 = tested on: MDA-MB-435
# MOLT-4 leukemia = tested on: MOLT-4 leukemia
# NCI-H226 lung = tested on: NCI-H226 lung
# NCI-H23 lung = tested on: NCI-H23 lung
smiles,measurement,setting,value
CC1=C2C(=O)[C@](C)(CO)C=C2C(=O)[C@](C)(O)C12CC2,GI50,786-0 renal,2100 nM
same,TGI,786-0 renal,4.92 µM
same,GI50,A549 NSCLC,2910 nM
same,TGI,A549 NSCLC,9.46 µM
same,GI50,ACHN renal,1860 nM
same,TGI,ACHN renal,3.56 µM
same,GI50,BT-549 breast,1750 nM
same,TGI,BT-549 breast,3.6 µM
same,GI50,CAKI-1 renal,1630 nM
same,TGI,CAKI-1 renal,3.07 µM
same,GI50,CCRF-CEM leukemia,3.08 µM
same,TGI,CCRF-CEM leukemia,13.8 µM
same,GI50,COLO 205 colon,2470 nM
same,TGI,COLO 205 colon,6.4 µM
same,GI50,DU-145 prostate,2200 nM
same,TGI,DU-145 prostate,4.89 µM
same,GI50,EKVX NSCLC,3.05 µM
same,TGI,EKVX NSCLC,10.2 µM
same,GI50,HCC-2998 colon,1720 nM
same,TGI,HCC-2998 colon,3.33 µM
same,GI50,HCT-116 colon,1820 nM
same,TGI,HCT-116 colon,3.84 µM
same,GI50,HCT-15 colon,2080 nM
same,TGI,HCT-15 colon,4.92 µM
same,GI50,HL-60(TB) leukemia,2460 nM
same,TGI,HL-60(TB) leukemia,6.21 µM
same,GI50,HOP-62 NSCLC,3.2 µM
same,TGI,HOP-62 NSCLC,11.6 µM
same,GI50,HOP-92 NSCLC,2120 nM
same,TGI,HOP-92 NSCLC,4.45 µM
same,GI50,HS 578T breast,2010 nM
same,TGI,HS 578T breast,5 µM
same,GI50,HT29 colon,3.25 µM
same,TGI,HT29 colon,11.8 µM
same,GI50,IGROV1 ovarian,2400 nM
same,TGI,IGROV1 ovarian,6.47 µM
same,GI50,K-562 leukemia,3.47 µM
same,TGI,K-562 leukemia,> 100 µM
same,GI50,KM12 colon,2230 nM
same,TGI,KM12 colon,5 µM
same,GI50,LOX IMVI melanoma,1720 nM
same,TGI,LOX IMVI melanoma,3.3 µM
same,GI50,M14 melanoma,1800 nM
same,TGI,M14 melanoma,3.56 µM
same,GI50,MALME-3M melanoma,1860 nM
same,TGI,MALME-3M melanoma,3.52 µM
same,GI50,MCF7 breast,1470 nM
same,TGI,MCF7 breast,3.16 µM
same,GI50,MDA-MB-231 breast,1980 nM
same,TGI,MDA-MB-231 breast,3.99 µM
same,GI50,MDA-MB-435,1840 nM
same,TGI,MDA-MB-435,3.41 µM
same,GI50,MOLT-4 leukemia,3.23 µM
same,TGI,MOLT-4 leukemia,13.1 µM
same,GI50,NCI-H226 lung,2180 nM
same,TGI,NCI-H226 lung,5.71 µM
same,GI50,NCI-H23 lung,1840 nM
